Measured values published in paper PMC10620772, “Design, synthesis, and biological evaluation of new pyrimidine-5-carbonitrile derivatives as novel anti-cancer, dual EGFR^WT/COX-2 inhibitors with docking studies” (RSC Advances, 2023).

Columns and labels:
Test in all cases: NCI60 antitumor screening
Format in all cases: cell-based, human
SR = test system: SR
A498 = test system: A498
MDA-MB-468 = test system: MDA-MB-468
SF-295 = test system: SF-295
SK-MEL-5 = test system: SK-MEL-5
OVCAR-4 = test system: OVCAR-4
MDA-MB-435 = test system: MDA-MB-435
NCI-H460 = test system: NCI-H460
LOX IMVI = test system: LOX IMVI
SK-MEL-28 = conditions: Homo sapiens; 10 μM single dose; SK-MEL-28 (melanoma); read-out: growth inhibition percent (GI%)
HT29 = test system: HT29
NCI/ADR-RES = test system: NCI/ADR-RES
K-562 = test system: K-562
A549/ATCC = test system: A549/ATCC
786–0 = conditions: Homo sapiens
[1] = Homo sapiens, MDA-MB-468, five-dose
[2] = Homo sapiens, OVCAR-4, five-dose

With `N#Cc1c(-c2ccc(F)cc2)nc(SCc2ccc(F)cc2)nc1N1CCNCC1` [4f, 2-((4-Fluorobenzyl)thio)-4-(4-fluorophenyl)-6-(piperazin-1-yl) pyrimidine-5-carbonitrile] the GI50 (SR; Homo sapiens, SR, five-dose) was 2.18 µM, the CC50 (SR; Homo sapiens, SR, five-dose, read-out: LC50 (the source's name)) was 17.5 µM and the inhibition at 10 µM (SR; Homo sapiens, 10 μM single dose, SR (leukaemia), read-out: growth inhibition percent (GI%)) was greater than 100%. The TGI (SR; five-dose) was 5.07 µM, the GI50 (A498; Homo sapiens, A498, five-dose) was 15.3 µM and the LC50 (A498; Homo sapiens, A498, five-dose) was 58.2 µM. The inhibition at 10 µM (A498; Homo sapiens, 10 μM single dose, A498 (renal cancer), read-out: growth inhibition percent (GI%)) was less than 10%, the TGI (A498; five-dose) was 29.80 µM and the GI50 (MDA-MB-468; [1]) was 12.4 µM. The LC50 (MDA-MB-468; [1]) was 55.3 µM, the inhibition at 10 µM (MDA-MB-468; Homo sapiens, 10 μM single dose, MDA-MB-468 (breast cancer), read-out: growth inhibition percent (GI%)) was greater than 100% and the TGI (MDA-MB-468; five-dose) was 26.20 µM. For the same compound, the GI50 (SF-295; Homo sapiens, SF-295, five-dose) was 16.6 µM, the CC50 (SF-295; Homo sapiens, SF-295, five-dose, read-out: LC50 (the source's name)) was 57.5 µM and the inhibition at 10 µM (SF-295; Homo sapiens, 10 μM single dose, SF-295 (CNS cancer), read-out: growth inhibition percent (GI%)) was greater than 100%. The TGI (SF-295; five-dose) was 30.90 µM, the GI50 (SK-MEL-5; Homo sapiens, SK-MEL-5, five-dose) was 16.8 µM and the CC50 (SK-MEL-5; Homo sapiens, SK-MEL-5, five-dose, read-out: LC50 (the source's name)) was 55.4 µM. For the same compound, the inhibition at 10 µM (SK-MEL-5; Homo sapiens, 10 μM single dose, SK-MEL-5 (melanoma), read-out: growth inhibition percent (GI%)) was greater than 100%, the TGI (SK-MEL-5; five-dose) was 30.50 µM and the GI50 (OVCAR-4; [2]) was 16.5 µM. It also gave an LC50 (lethal concentration, 50% cell kill) (OVCAR-4; [2]) of 68.7 µM, an inhibition at 10 µM (OVCAR-4; Homo sapiens, 10 μM single dose, OVCAR-4 (ovarian cancer), read-out: growth inhibition percent (GI%)) greater than 100% and a TGI (OVCAR-4; five-dose) of 33.60 µM. It also gave a GI50 (MDA-MB-435; Homo sapiens, MDA-MB-435, five-dose) of 16.8 µM, a CC50 (MDA-MB-435; Homo sapiens, MDA-MB-435, five-dose, read-out: LC50 (the source's name)) of 58.4 µM and an inhibition at 10 µM (MDA-MB-435; Homo sapiens, 10 μM single dose, MDA-MB-435 (melanoma), read-out: growth inhibition percent (GI%)) greater than 100%. For the same compound, the TGI (MDA-MB-435; five-dose) was 31.30 µM, the GI50 (NCI-H460; Homo sapiens, NCI-H460, five-dose) was 14.3 µM and the CC50 (NCI-H460; Homo sapiens, NCI-H460, five-dose, read-out: LC50 (the source's name)) was 60.4 µM. For the same compound, the inhibition at 10 µM (NCI-H460; Homo sapiens, 10 μM single dose, NCI-H460 (non-small cell lung cancer), read-out: growth inhibition percent (GI%)) was greater than 100%, the TGI (NCI-H460; five-dose) was 29.40 µM and the GI50 (LOX IMVI; Homo sapiens, LOX IMVI, five-dose) was 2.28 µM. The CC50 (LOX IMVI; Homo sapiens, LOX IMVI, five-dose, read-out: LC50 (the source's name)) was 22.7 µM, the inhibition at 10 µM (LOX IMVI; Homo sapiens, 10 μM single dose, LOX IMVI (melanoma), read-out: growth inhibition percent (GI%)) was greater than 100% and the TGI (LOX IMVI; five-dose) was 5.69 µM. For the same compound, the inhibition at 10 µM (SK-MEL-28) was greater than 100%, the inhibition at 10 µM (HT29; Homo sapiens, HT-29, 10 μM single dose, HT29 (colon cancer), read-out: growth inhibition percent (GI%)) was greater than 100% and the GI50 (HT29; Homo sapiens, HT-29, five-dose) was 4.87 µM. It also gave a CC50 (HT29; Homo sapiens, HT-29, five-dose, read-out: LC50 (the source's name)) of 51.7 µM, a TGI (HT29; five-dose) of 17.30 µM and a GI50 (NCI/ADR-RES; Homo sapiens, NCI/ADR-RES, five-dose) of 13.7 µM. It also gave a CC50 (NCI/ADR-RES; Homo sapiens, NCI/ADR-RES, five-dose, read-out: LC50 (the source's name)) of 67.5 µM, an inhibition at 10 µM (NCI/ADR-RES; Homo sapiens, 10 μM single dose, NCI/ADR-RES (ovarian cancer), read-out: growth inhibition percent (GI%)) greater than 100% and a TGI (NCI/ADR-RES; five-dose) of 30.40 µM. The GI% (K-562; 10 μM one-dose) was 99.28%, the GI50 (K-562; Homo sapiens, K562, five-dose) was 3.76 µM and the CC50 (K-562; Homo sapiens, K562, five-dose, read-out: LC50 (the source's name)) was greater than 100 µM. For the same compound, the inhibition at 10 µM (K-562; Homo sapiens, 10 μM single dose, (leukaemia), read-out: growth inhibition percent (GI%)) was 99.3%, the TGI (K-562; five-dose) was 17.80 µM and the GI50 (A549/ATCC; Homo sapiens, A549, five-dose) was 11.5 µM. For the same compound, the LC50 (concentration killing 50% of cells) (A549/ATCC; Homo sapiens, A549, five-dose) was 54.2 µM, the inhibition at 10 µM (A549/ATCC; Homo sapiens, 10 μM single dose, A549/ATCC (non-small cell lung cancer), read-out: growth inhibition percent (GI%)) was greater than 100% and the TGI (A549/ATCC; five-dose) was 25.00 µM. The GI50 (786–0; 786-0, five-dose) was 13.8 µM, the LC50 (concentration killing 50% of tumour cells) (786–0; 786-0, five-dose) was 62.6 µM and the inhibition at 10 µM (786–0; 10 μM single dose, 786–0 (renal cancer), read-out: growth inhibition percent (GI%)) was greater than 100%.
